Measurements: paper PMC4983413, “Intracellular accumulation of Praziquantel in T lymphoblastoid cell lines, CEM (parental) and CEMVBL(P-gp-overexpressing)” (BMC Pharmacology & Toxicology, 2016)
Values joined by “and” are separate entries in the source; they are usually repeats but may differ in a detail not shown here. Equal entries are not always repeated. “Also recorded” adds a separate entry of the source.

Key:
[1] = test system: CEM (parental) T-lymphoblastoid cells; assay: Effect of PZQ and tariquidar on intracellular accumulation of SQV in CEM cells (inhibition study); type: cell-based
Description: (§1) The cell samples were centrifuged (2000 × g for 5 min at 4 °C) and the supernatant fraction discarded. […] The cells were then incubated at 37 °C for 30 min in a shaking water bath. The resulting cell suspensions were then centrifuged (2000 × g for 5 min at 4 °C). 100 μl samples of the supernatant fraction were then removed, and the aliquots used to determine the extracellular (EXT) concentration. The excess supernatant fraction was then discarded and the resulting cell pellet washed three times in 10 ml HBSS and centrifuged (2000 × g for 5 min). The resulting pellets were solubilized by reconstituting in 100 μl of distilled water and used to determine intracellular (INT) concentrations as described in a method previously validated in our laboratory. The experiment was carried out in quadruplicate. The samples were then assayed by HPLC, and the data expressed as cellular accumulation ratio (CAR), the ratio of the intracellular to the extracellular accumulation calculated by the formula, CAR = (INT/EXT) × 10 [intracellular concentrations were calculated using the volume of a single CEM and CEMVBL cell to be 1 picolitre (pl)] [15, 30].

[2] = molecular target: T1, P-gp (CEMVBL cells) (Homo sapiens, UniProt P08183); assay: Effect of PZQ and tariquidar on intracellular accumulation of SQV in CEMVBL cells (inhibition study); type: cell-based
T1 construct: CEMVBL cells that have increased expression of P-gp were selected under vinblastine; endogenous in cells; host or cells: CEMVBL (vinblastine-selected CEM T-lymphoblastoid cells)
T1 sequence (P08183 whole entry): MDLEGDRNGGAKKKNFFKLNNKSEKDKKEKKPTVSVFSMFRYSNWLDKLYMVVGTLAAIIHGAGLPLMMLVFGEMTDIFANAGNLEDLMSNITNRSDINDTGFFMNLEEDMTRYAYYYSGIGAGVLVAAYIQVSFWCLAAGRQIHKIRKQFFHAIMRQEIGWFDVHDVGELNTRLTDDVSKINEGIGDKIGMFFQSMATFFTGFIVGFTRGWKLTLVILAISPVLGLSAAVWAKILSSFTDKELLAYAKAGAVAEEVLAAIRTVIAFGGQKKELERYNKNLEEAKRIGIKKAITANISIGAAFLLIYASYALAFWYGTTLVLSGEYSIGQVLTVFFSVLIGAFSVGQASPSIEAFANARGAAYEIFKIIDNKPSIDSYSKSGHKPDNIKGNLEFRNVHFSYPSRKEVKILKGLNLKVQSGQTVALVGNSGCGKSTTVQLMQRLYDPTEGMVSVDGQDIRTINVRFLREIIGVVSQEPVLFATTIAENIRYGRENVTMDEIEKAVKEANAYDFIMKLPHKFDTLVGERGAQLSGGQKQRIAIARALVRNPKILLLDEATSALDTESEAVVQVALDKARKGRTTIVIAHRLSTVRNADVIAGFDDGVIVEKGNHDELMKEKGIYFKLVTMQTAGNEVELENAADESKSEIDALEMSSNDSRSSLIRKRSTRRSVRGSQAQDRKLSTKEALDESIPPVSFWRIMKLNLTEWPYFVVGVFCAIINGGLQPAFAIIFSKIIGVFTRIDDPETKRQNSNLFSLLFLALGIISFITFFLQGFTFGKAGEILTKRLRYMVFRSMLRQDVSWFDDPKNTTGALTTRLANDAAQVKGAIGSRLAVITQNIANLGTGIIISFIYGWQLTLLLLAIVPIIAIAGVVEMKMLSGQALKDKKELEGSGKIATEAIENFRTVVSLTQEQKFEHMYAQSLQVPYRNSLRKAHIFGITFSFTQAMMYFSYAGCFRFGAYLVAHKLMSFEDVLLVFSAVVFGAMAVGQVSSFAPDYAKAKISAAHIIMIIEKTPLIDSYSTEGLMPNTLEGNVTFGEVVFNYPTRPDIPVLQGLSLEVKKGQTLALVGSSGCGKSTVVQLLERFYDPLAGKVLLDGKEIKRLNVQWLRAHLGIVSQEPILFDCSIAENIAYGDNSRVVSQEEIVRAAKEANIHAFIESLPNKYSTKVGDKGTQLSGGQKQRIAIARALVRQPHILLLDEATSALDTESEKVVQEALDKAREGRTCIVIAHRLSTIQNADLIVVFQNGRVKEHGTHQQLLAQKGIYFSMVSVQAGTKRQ
Description: as §1

[3] = Freeze-thaw stability of QC samples in DMEM (HPLC); type: physicochemical; conditions: for Effect of freeze thawing on concentration in DMEM: freeze-thawed versus fresh DMEM samples; for Stability, Mean: freeze-thawed versus freshly prepared samples, peak areas
From the text: The separation from endogenous compounds was investigated by analyzing six different samples of DMEM. Short and long term stability was investigated by comparing the peak areas of six freshly prepared QC assay samples to those of the freeze-thawed samples, and it was expressed as a percentage.

[4] = test system: CEMVBL cells which overexpress P-gp; assay: Intracellular accumulation (substrate study) in CEMVBL cells; type: in vitro ADME
Description: The parental cell line was CEM (T-lymphoblastoid cell line) was used as the parental cell line. CEMVBL cells that have increased expression of P-gp were selected under vinblastine. The selection of drug resistant cells was carried out by using increasing concentrations of vinblastine up to 100 ng/mL.
as §1

[5] = test system: P-gp; parameters: method as in PMID 16846720; conditions: Caco-2 cell lines; cited from earlier work
[6] = test system: SMDR2, a P-gp orthologue; parameters: method as in PMID 19726755; conditions: cited from earlier work
[7] = test system: CEM (parental) T-lymphoblastoid cells; assay: Intracellular accumulation (substrate study) in CEM parental cells; type: in vitro ADME; conditions: 10 μg/ml drug, 30 min, 37 °C
Description: The parental cell line was CEM (T-lymphoblastoid cell line) was used as the parental cell line. CEMVBL cells that have increased expression of P-gp were selected under vinblastine. The selection of drug resistant cells was carried out by using increasing concentrations of vinblastine up to 100 ng/mL. CEM and CEMVBL Cells were cultured in 175 cm^2 flasks containing DMEM supplemented with 15 % FBS at 37 °C in a humidified 5 % CO2 gassed incubator, conditions which led to doubling after approximately every 24 h.
as §1, with “The resulting pellets were solubilized by reconstituting in 100 μl of distilled water and used to determine intracellular (INT) concentrations as described in a method previously validated in our laboratory. The experiment was carried out in quadruplicate.” left out, “[15, 30].” left out

[8] = test system: cellular efflux pumps (P-gp); parameters: method as in PMID 15847994, PMID 20513441; conditions: cited from earlier work

Structure (SMILES): CC(C)(C)NC(=O)[C@@H]1C[C@@H]2CCCC[C@@H]2CN1C[C@@H](O)[C@H](Cc1ccccc1)NC(=O)[C@H](CC(N)=O)NC(=O)c1ccc2ccccc2n1 [SQV, Saquinavir]
- CAR of SQV alone, mean (inhibition study) ([1]; 10 μg/ml SQV alone, mean (± SD), n = 4): 0.52 ± 0.068 and 0.52
- CAR of SQV alone, individual sample (inhibition study) ([1]; 10 μg/ml SQV alone, samples 1-4): 0.57 and 0.50 and 0.59 and 0.44
- CAR of SQV alone, mean (inhibition study) ([2]; CEMVBL cells, 10 μg/ml SQV alone, mean (± SD), n = 4): 0.09 ± 0.015 and 0.09
- CAR of SQV alone, individual sample (inhibition study) ([2]; CEMVBL cells, 10 μg/ml SQV alone, samples 1-4): 0.07 and 0.10 and 0.11
- Effect of freeze thawing on concentration in DMEM [3]: did not appear to significantly affect the concentrations

Structure (SMILES): COc1cc2c(cc1OC)CN(CCc1ccc(NC(=O)c3cc(OC)c(OC)cc3NC(=O)c3cnc4ccccc4c3)cc1)CC2 [tariquidar]
- CAR of SQV in presence of tariquidar (XR), mean ([1]; 10 μg/ml SQV + 1 μM tariquidar, mean (± SD), n = 4): 0.61 ± 0.102 and 0.61
- CAR of SQV in presence of tariquidar (XR), individual sample ([1]; 10 μg/ml SQV + 1 μM tariquidar, samples 1-4, listed as XR): 0.55 and 0.51 and 0.73 and 0.66

Structure (SMILES): O=C(C1CCCCC1)N1CC(=O)N2CCc3ccccc3C2C1 (centres unmarked) [PZQ, Praziquantel]
- CAR of SQV in presence of PZQ, mean ([1]; 10 μg/ml SQV + 10 μg/ml PZQ, mean (± SD), n = 4): 0.54 ± 0.061 and 0.54
- CAR of SQV in presence of PZQ, individual sample ([1]; 10 μg/ml SQV + 10 μg/ml PZQ, samples 1-4): 0.45 and 0.57 and 0.59 and 0.53
- Cellular accumulation ratio (CAR), mean ([4]; CEMVBL cells, 10 μg/ml drug, 30 min, 37 °C, mean (± SD), n = 4): 0.05 ± 0.005 and 0.05
- Cellular accumulation ratio (CAR), individual sample ([4]; CEMVBL cells, 10 μg/ml drug, 30 min, 37 °C, samples 1-4): 0.06 and 0.05
- P-gp substrate specificity (conclusion) ([4]; comparison of accumulation in CEM and CEMVBL cells): not a substrate of P-gp; also recorded: neither a substrate nor an inhibitor of P-gp
- P-gp inhibitor / substrate status [5]: an inhibitor of P-gp without being a substrate
- Inhibition of transport by SMDR2 [6]: inhibit the transport by SMDR2
- Cellular accumulation ratio (CAR), individual sample ([7]; CAR = (INT/EXT) × 10, samples 1-4): 0.03 and 0.05 and 0.04
- Cellular accumulation ratio (CAR), mean ([7]; mean (± SD), n = 4): 0.04 ± 0.009 and 0.04
- P-gp inhibition (conclusion) ([2]; effect on SQV accumulation in CEMVBL cells compared to tariquidar): not an inhibitor of P-gp; also recorded: neither a substrate nor an inhibitor of P-gp
- Interaction with cellular efflux pumps / P-gp substrate status [8]: did not show potential for interacting with cellular efflux pumps; also recorded: not a substrate
- Permeability [8]: highly permeable substance
- Stability, Mean ([3]; HQC 19.2 μM in DMEM): 109 (±3) %
- Stability, Mean ([3]; LQC 6.4 μM in DMEM): 105 (±4) %
- Stability, Mean ([3]; MQC 12.8 μM in DMEM): 113 (±6) %
- Effect of freeze thawing on concentration in DMEM [3]: did not appear to significantly affect the concentrations
